The record followed here is patent US20260297070A1, “CYCLIC [COMPOUND LEFT OUT] WRN INHIBITORS” (Nimbus Wadjet, Inc., priority 2023, published 2026).

The assay addresses T1, human Werner helicase (WRN-BV08, Uniprot Q14191, amino acids 517-1235 with L1074F point mutation) (Homo sapiens, UniProt Q14191, L1074F).
T1 construct: Uniprot Q14191, amino acids 517-1235 with L1074F point mutation; TEV-cleavable 8×His (C, cleaved yes); made in house; host or cells: Sf9 insect cells (baculovirus)
Put plainly: WRN (BV08) ADP-Glo Assay. It counts as biochemical. The conditions noted are these: 0.15 nM WRN, 5 μM ATP, 0.1 nM DNA duplex, 15 min preincubation, 60 min at 25° C., pH 7.5, 1% DMSO; read-out: ADP-Glo_hWRN_IC50. Put shortly:
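Untagged WRN (Sf9-expressed, TEV-cleaved) at 0.15 nM was preincubated 15 min at 25 °C with compound, then reacted 60 min at 25 °C with 5 μM ATP and 0.1 nM DNA duplex in Bicine pH 7.5, 1 mM MgCl2. ADP-Glo luminescence gave % inhibition; IC50 by four-parameter fit.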
(ADP-Glo turns the ADP formed in a reaction into a luminescent signal.)

The structures appear in SMILES notation.

T1 sequence (Q14191 with tags, fused parts or gaps L1074F limits assumed): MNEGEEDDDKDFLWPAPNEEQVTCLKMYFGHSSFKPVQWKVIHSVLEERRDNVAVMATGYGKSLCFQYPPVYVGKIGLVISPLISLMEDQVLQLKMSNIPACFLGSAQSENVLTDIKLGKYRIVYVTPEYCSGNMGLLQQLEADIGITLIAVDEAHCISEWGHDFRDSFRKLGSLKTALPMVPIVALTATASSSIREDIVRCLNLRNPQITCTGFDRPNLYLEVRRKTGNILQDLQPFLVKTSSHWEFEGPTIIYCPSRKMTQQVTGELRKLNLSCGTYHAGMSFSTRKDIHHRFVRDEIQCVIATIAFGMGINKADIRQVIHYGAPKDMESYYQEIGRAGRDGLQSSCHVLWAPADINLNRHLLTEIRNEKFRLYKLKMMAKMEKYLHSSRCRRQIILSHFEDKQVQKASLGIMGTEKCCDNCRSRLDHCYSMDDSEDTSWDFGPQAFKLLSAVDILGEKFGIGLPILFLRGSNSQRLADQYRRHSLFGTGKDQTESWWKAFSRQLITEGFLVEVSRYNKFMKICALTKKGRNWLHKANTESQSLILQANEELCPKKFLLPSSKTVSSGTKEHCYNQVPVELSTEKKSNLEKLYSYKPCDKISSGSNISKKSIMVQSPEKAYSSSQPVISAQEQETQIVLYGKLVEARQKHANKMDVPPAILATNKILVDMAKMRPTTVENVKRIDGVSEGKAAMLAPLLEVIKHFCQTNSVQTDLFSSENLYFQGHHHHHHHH

Turning to `O=C(Cc1ccc(-c2cc(F)cc(F)c2)cc1)N(Cc1ccncc1)C1C=CS(=O)(=O)C1` (stereo not drawn) [I-166, 2-{3′,5′-difluoro-[1,1′-biphenyl]-4-yl}-N-(1,1-dioxo-2,3-dihydro-1lambda6-thiophen-3-yl)-N-[(pyridin-4-yl)methyl]acetamide], the IC50 fell in the range of 0.5 to 5 µM.

Turning to `CS(=O)(=O)c1ccccc1CN(C(=O)Cc1ccc(-n2cccc2)cc1)C1C=CS(=O)(=O)C1` (stereo not drawn) [I-322, N-(1,1-dioxo-2,3-dihydro-1lambda6-thiophen-3-yl)-N-[(2-methanesulfonylphenyl)methyl]-2-[4-(1H-pyrrol-1-yl)phenyl]acetamide], the IC50 lay within 10 to 50 µM.

Take `CC(C)(O)c1cc(CN(C(=O)C(OCC(F)(F)F)c2ccc(-c3ccc(F)c(F)c3)cc2F)[C@@H]2C=CS(=O)(=O)C2)ccn1` (single isomer, unassigned) [I-805]: the IC50 is under 0.5 µM.

As for `CC(C)(O)c1csc(CN(C(=O)Cn2cc(-c3cc(F)c(F)c(F)c3)cn2)C2C=CS(=O)(=O)C2)n1` (single isomer, unassigned) [I-799], the IC50 lay in the range of 0.5 to 5 µM.

For the compound `COc1cc(CN(C(=O)C(c2ccc(-c3ccc(F)c(F)c3)cc2F)n2cc(C(F)F)cn2)[C@@H]2C=CS(=O)(=O)C2)ccn1` (single isomer, unassigned) [I-711, (2R*)-2-[4-(difluoromethyl)-1H-pyrazol-1-yl]-N-[(3R)-1,1-dioxo-2,3-dihydro-1lambda6-thiophen-3-yl]-N-[(2-methoxypyridin-4-yl)methyl]-2-{3,3′,4′-trifluoro-[1,1′-biphenyl]-4-yl}acetamide], the IC50 was over 50 µM.

With `COC(C(=O)N(Cc1ccnc(C(C)(C)O)c1)C1C=CS(=O)(=O)C1)c1ccc(-c2ccc(F)c(F)c2)cc1F` (stereo not drawn) [I-18, N-(1,1-dioxo-2,3-dihydro-1lambda6-thiophen-3-yl)-N-{[2-(2-hydroxypropan-2-yl)pyridin-4-yl]methyl}-2-methoxy-2-{3,3′,4′-trifluoro-[1,1′-biphenyl]-4-yl}acetamide], the IC50 was under 0.5 µM.

Regarding `CC(C)(O)c1cc(CN(C(=O)C(c2ccc(-c3ccc(F)c(F)c3)cc2F)n2ccnn2)C2C=CS(=O)(=O)C2)ccn1` (single isomer, unassigned) [I-801, (2R*)-N-[(3R**)-1,1-dioxo-2,3-dihydro-1lambda6-thiophen-3-yl]-N-{[2-(2-hydroxypropan-2-yl)pyridin-4-yl]methyl}-2-(1H-1,2,3-triazol-1-yl)-2-{3,3′,4′-trifluoro-[1,1′-biphenyl]-4-yl}acetamide], the IC50 is under 0.5 µM.

As to `COc1cc(CN(C(=O)C(OCC2CN(S(C)(=O)=O)C2)c2ccc(-c3ccc(F)c(F)c3)cc2F)[C@@H]2C=CS(=O)(=O)C2)ccn1` (stereo partly drawn) [I-810, N-[(3R)-1,1-dioxo-2,3-dihydro-1lambda6-thiophen-3-yl]-2-[(1-methanesulfonylazetidin-3-yl)methoxy]-N-[(2-methoxypyridin-4-yl)methyl]-2-{3,3′,4′-trifluoro-[1,1′-biphenyl]-4-yl}acetamide], the IC50 is 0.5 to 5 µM.

Regarding `O=C(Cc1coc(-c2ccc(F)c(F)c2)n1)N(Cc1ccncc1)C1C=CS(=O)(=O)C1` (stereo not drawn) [I-410, 2-[2-(3,4-difluorophenyl)-1,3-oxazol-4-yl]-N-(1,1-dioxo-2,3-dihydro-1lambda6-thiophen-3-yl)-N-[(pyridin-4-yl)methyl]acetamide], the IC50 was over 50 µM.

Regarding `O=C(Cc1ccc(-n2cccc2)cc1)N(Cc1ccc2nccn2c1)C1C=CS(=O)(=O)C1` (stereo not drawn) [I-361, N-(1,1-dioxo-2,3-dihydro-1lambda6-thiophen-3-yl)-N-({imidazo[1,2-a]pyridin-6-yl}methyl)-2-[4-(1H-pyrrol-1-yl)phenyl]acetamide], the IC50 is 10 to 50 µM.

Take `O=C(Cn1nnc2ccccc21)N(Cc1ccncc1)C1C=CS(=O)(=O)C1` (stereo not drawn) [I-492, 2-(1H-1,2,3-benzotriazol-1-yl)-N-(1,1-dioxo-2,3-dihydro-1lambda6-thiophen-3-yl)-N-[(pyridin-4-yl)methyl]acetamide]: the IC50 was over 50 µM.

As for `CC(C)(O)c1csc(CN(C(=O)Cc2ccc(S(F)(F)(F)(F)F)cc2)C2C=CS(=O)(=O)C2)n1` (stereo not drawn) [I-637, N-(1,1-dioxo-2,3-dihydro-1lambda6-thiophen-3-yl)-N-{[4-(2-hydroxypropan-2-yl)-1,3-thiazol-2-yl]methyl}-2-[4-(pentafluoro-lambda6-sulfanyl)phenyl]acetamide], the IC50 lay within 10 to 50 µM.

As to `Cc1cccn1-c1ccc(CC(=O)N(Cc2ccnc(C3(O)CC3)c2)C2C=CS(=O)(=O)C2)c(F)c1` (stereo not drawn) [I-90, N-(1,1-dioxo-2,3-dihydro-1lambda6-thiophen-3-yl)-2-[2-fluoro-4-(2-methyl-1H-pyrrol-1-yl)phenyl]-N-{[2-(1-hydroxycyclopropyl)pyridin-4-yl]methyl}acetamide], the IC50 was 0.5 to 5 µM.

Consider `CC(=O)N(C)C(C(=O)N(Cc1ccncc1)C1C=CS(=O)(=O)C1)c1ccc(-c2ccc(F)cc2)cc1` (single isomer, unassigned) [I-282], for which the IC50 is 10 to 50 µM.

For the compound `O=C(Cc1ccc(-n2cccc2)cc1)N(C1C=CS(=O)(=O)C1)C1CCCc2cnccc21` (stereo not drawn) [I-471, N-(1,1-dioxo-2,3-dihydro-1lambda6-thiophen-3-yl)-2-[4-(1H-pyrrol-1-yl)phenyl]-N-(5,6,7,8-tetrahydroisoquinolin-5-yl)acetamide], the IC50 is over 50 µM.

For `COC(C(=O)N(Cc1ccnc(C(C)(C)O)c1)C1C=CS(=O)(=O)C1)c1ccc(-c2ccc(F)cc2)cc1F` (single isomer, unassigned) [I-199, (2R*)-2-{3,4′-difluoro-[1,1′-biphenyl]-4-yl}-N-[(3R**)-1,1-dioxo-2,3-dihydro-1lambda6-thiophen-3-yl]-N-{[2-(2-hydroxypropan-2-yl)pyridin-4-yl]methyl}-2-methoxyacetamide], the IC50 lay in the range of 0.5 to 5 µM.

As to `CC(C)(O)c1cc(CN(C(=O)Cc2ccc(S(F)(F)(F)(F)F)cc2F)C2C=CS(=O)(=O)C2)ccn1` (stereo not drawn) [I-44, N-(1,1-dioxo-2,3-dihydro-1lambda6-thiophen-3-yl)-2-[2-fluoro-4-(pentafluoro-lambda6-sulfanyl)phenyl]-N-{[2-(2-hydroxypropan-2-yl)pyridin-4-yl]methyl}acetamide], the IC50 was under 0.5 µM.

As for `Cc1nc(CN(C(=O)Cc2ccc(-n3cccc3)cc2)C2C=CS(=O)(=O)C2)cs1` (stereo not drawn) [I-335, N-(1,1-dioxo-2,3-dihydro-1lambda6-thiophen-3-yl)-N-[(2-methyl-1,3-thiazol-4-yl)methyl]-2-[4-(1H-pyrrol-1-yl)phenyl]acetamide], the IC50 is 10 to 50 µM.

Take `Cc1cccn1-c1ccc(CC(=O)N(Cc2ccc(Br)cc2)C2C=CS(=O)(=O)C2)c(F)c1` (stereo not drawn) [I-100, N-[(4-bromophenyl)methyl]-N-(1,1-dioxo-2,3-dihydro-1lambda6-thiophen-3-yl)-2-[2-fluoro-4-(2-methyl-1H-pyrrol-1-yl)phenyl]acetamide]: the IC50 lay in the range of 0.5 to 5 µM.

For `COc1cc(CN(C(=O)C2CN(C)c3cc(-c4ccc(F)cc4)ccc32)C2C=CS(=O)(=O)C2)ccn1` (stereo not drawn) [I-385, N-(1,1-dioxo-2,3-dihydro-1lambda6-thiophen-3-yl)-6-(4-fluorophenyl)-N-[(2-methoxypyridin-4-yl)methyl]-1-methyl-2,3-dihydro-1H-indole-3-carboxamide], the IC50 is over 50 µM.

Take `O=C(Cc1ccc(-n2cccc2)cc1)N(Cc1ccccc1CO)C1C=CS(=O)(=O)C1` (stereo not drawn) [I-360, N-(1,1-dioxo-2,3-dihydro-1lambda6-thiophen-3-yl)-N-{[2-(hydroxymethyl)phenyl]methyl}-2-[4-(1H-pyrrol-1-yl)phenyl]acetamide]: the IC50 lay within 10 to 50 µM.

Consider `COc1cc(CN(C(=O)CCc2c[nH]c3cc(Cl)ccc23)C2C=CS(=O)(=O)C2)ccn1` (stereo not drawn) [I-240, 3-(6-chloro-1H-indol-3-yl)-N-(1,1-dioxo-2,3-dihydro-1lambda6-thiophen-3-yl)-N-[(2-methoxypyridin-4-yl)methyl]propanamide], for which the IC50 is 5 to 10 µM.

Take `O=C(C(c1ccc(-c2ccc(F)cc2)cc1)N1CCCC1=O)N(Cc1ccncc1)C1C=CS(=O)(=O)C1` (stereo not drawn) [I-328, N-(1,1-dioxo-2,3-dihydro-1lambda6-thiophen-3-yl)-2-{4′-fluoro-[1,1′-biphenyl]-4-yl}-2-(2-oxopyrrolidin-1-yl)-N-[(pyridin-4-yl)methyl]acetamide]: the IC50 lay in the range of 10 to 50 µM.

As to `O=C(Cn1cc(-c2cc(F)c(F)c(F)c2)cn1)OCC1(c2csc(CNC3C=CS(=O)(=O)C3)n2)CC1` (stereo not drawn) [I-823, [1-(2-{[(1,1-dioxo-2,3-dihydro-1lambda6-thiophen-3-yl)amino]methyl}-1,3-thiazol-4-yl)cyclopropyl]methyl 2-[4-(3,4,5-trifluorophenyl)-1H-pyrazol-1-yl]acetate], the IC50 is over 50 µM.

Regarding `COc1cc(CN(C(=O)Cn2cc(-c3cccc(F)c3)cn2)C2C=CS(=O)(=O)C2)ccn1` (stereo not drawn) [I-54, N-(1,1-dioxo-2,3-dihydro-1lambda6-thiophen-3-yl)-2-[4-(3-fluorophenyl)-1H-pyrazol-1-yl]-N-[(2-methoxypyridin-4-yl)methyl]acetamide], the IC50 is under 0.5 µM.

Take `C#CCCCC(=O)N1CCN(C(=O)c2ccc(CN(C(=O)Cc3ccc(-n4cccc4C)cc3F)C3C=CS(=O)(=O)C3)cc2)CC1` (stereo not drawn) [I-182, N-(1,1-dioxo-2,3-dihydro-1lambda6-thiophen-3-yl)-2-[2-fluoro-4-(2-methyl-1H-pyrrol-1-yl)phenyl]-N-({4-[4-(hex-5-ynoyl)piperazine-1-carbonyl]phenyl}methyl)acetamide]: the IC50 is 0.5 to 5 µM.

For the compound `CN(C)C(=O)C(C(=O)N(Cc1ccncc1)C1C=CS(=O)(=O)C1)c1ccc(-c2ccc(F)cc2)cc1` (single isomer, unassigned) [I-374, (2R**)-N′-[(3R*)-1,1-dioxo-2,3-dihydro-1lambda6-thiophen-3-yl]-2-{4′-fluoro-[1,1′-biphenyl]-4-yl}-N,N-dimethyl-N′-[(pyridin-4-yl)methyl]propanediamide], the IC50 was over 50 µM.
